According to US20260262643A1, “HERBICIDAL BENZOXAZINES” (FMC CORPORATION, priority 2022, published 2026):

What was measured:
[1] = tested on: blackgrass; experiment: Test A preemergence; assay type: in vivo, Alopecurus myosuroides
Summary of the method: (§1)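 Weeds and crops in loam–sand blend were sprayed preemergence onto soil or postemergence at 2–10 cm (one- to two-leaf stage). Test chemicals were in a non-phytotoxic solvent with surfactant. After 10 days in the greenhouse, injury was rated visually against untreated controls on a 0 (no effect) to 100 (complete control) scale.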

[2] = tested on: corn; experiment: Test A preemergence; assay type: in vivo, Zea mays
Summary of the method: as §1

[3] = tested on: foxtail, giant; experiment: Test A preemergence; assay type: in vivo, Setaria faberi
Summary of the method: as §1

[4] = tested on: goosegrass; experiment: Test A preemergence; assay type: in vivo, Eleusine indica
Summary of the method: as §1

[5] = tested on: kochia; experiment: Test A preemergence; assay type: in vivo, Bassia scoparia
Summary of the method: as §1

[6] = tested on: oat, wild; experiment: Test A preemergence; assay type: in vivo, Avena fatua
Summary of the method: as §1

[7] = tested on: pigweed, palmer; experiment: Test A preemergence; assay type: in vivo, Amaranthus palmeri
Summary of the method: as §1

[8] = tested on: ragweed; experiment: Test A preemergence; assay type: in vivo, Ambrosia artemisiifolia
Summary of the method: as §1

[9] = tested on: ryegrass, Italian; experiment: Test A preemergence; assay type: in vivo, Lolium multiflorum
Summary of the method: as §1

[10] = tested on: soybean; experiment: Test A preemergence; assay type: in vivo, Glycine max
Summary of the method: as §1

[11] = tested on: wheat; experiment: Test A preemergence; assay type: in vivo, Triticum aestivum
Summary of the method: as §1

[12] = tested on: blackgrass; experiment: Test A postemergence; assay type: in vivo, Alopecurus myosuroides
Summary of the method: as §1

[13] = tested on: corn; experiment: Test A postemergence; assay type: in vivo, Zea mays
Summary of the method: as §1

[14] = tested on: foxtail, giant; experiment: Test A postemergence; assay type: in vivo, Setaria faberi
Summary of the method: as §1

[15] = tested on: goosegrass; experiment: Test A postemergence; assay type: in vivo, Eleusine indica
Summary of the method: as §1

[16] = tested on: kochia; experiment: Test A postemergence; assay type: in vivo, Bassia scoparia
Summary of the method: as §1

[17] = tested on: oat, wild; experiment: Test A postemergence; assay type: in vivo, Avena fatua
Summary of the method: as §1

[18] = tested on: pigweed, palmer; experiment: Test A postemergence; assay type: in vivo, Amaranthus palmeri
Summary of the method: as §1

[19] = tested on: ragweed; experiment: Test A postemergence; assay type: in vivo, Ambrosia artemisiifolia
Summary of the method: as §1

[20] = tested on: ryegrass, Italian; experiment: Test A postemergence; assay type: in vivo, Lolium multiflorum
Summary of the method: as §1

[21] = tested on: soybean; experiment: Test A postemergence; assay type: in vivo, Glycine max
Summary of the method: as §1

[22] = tested on: wheat; experiment: Test A postemergence; assay type: in vivo, Triticum aestivum
Summary of the method: as §1

[23] = tested on: galium; experiment: Test A postemergence; assay type: in vivo, Galium aparine
Summary of the method: as §1

[24] = tested on: horseweed; experiment: Test A postemergence; assay type: in vivo, Erigeron canadensis
Summary of the method: as §1

[25] = tested on: barnyardgrass; experiment: Test B flooded paddy test; assay type: in vivo, Echinochloa crus-galli; conditions: 250 g ai/ha, Flood, 13 days, 0 to 100 scale (0 no effect, 100 complete control)
Summary of the method: (§2)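 Two-leaf plants, 3 cm flood, in-water application, 13-day greenhouse hold, visual 0–100 rating vs untreated checks.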

[26] = tested on: ducksalad; experiment: Test B flooded paddy test; assay type: in vivo, Heteranthera limosa; conditions: 250 g ai/ha, Flood, 13 days, 0 to 100 scale (0 no effect, 100 complete control)
Summary of the method: as §2

[27] = tested on: rice; experiment: Test B flooded paddy test; assay type: in vivo, Oryza sativa; conditions: 250 g ai/ha, Flood, 13 days, 0 to 100 scale (0 no effect, 100 complete control)
Summary of the method: as §2

[28] = tested on: sedge, umbrella; experiment: Test B flooded paddy test; assay type: in vivo, Cyperus difformis; conditions: 250 g ai/ha, Flood, 13 days, 0 to 100 scale (0 no effect, 100 complete control)
Summary of the method: as §2

[29] = 125 g ai/ha, visual injury after 10 days, 0 to 100 scale, 0 is no effect, 100 is complete control
[30] = 500 g ai/ha, 0 to 100 scale (0 no effect, 100 complete control), 10 days
[31] = 125 g ai/ha, postemergence, 10 days, visual injury, 0 to 100 scale (0 no effect, 100 complete control)
[32] = 500 g ai/ha, Postemergence, 0 to 100 scale

Structure (SMILES): Cc1cccc2c1O[C@@H](C)CN2C(=O)c1cc(-n2cncn2)ccc1Cl [Compound 60]
- Plant response rating, Blackgrass [1, 29]: 20
- Plant response rating, Blackgrass [1, 30]: 70
- Plant response rating, Corn [2, 29]: 20
- Plant response rating, Corn [2, 30]: 30
- Plant response rating, Foxtail, Giant [3, 29]: 100
- Plant response rating, Foxtail, Giant [3, 30]: 100
- Plant response rating, Goosegrass [4, 29]: 100
- Plant response rating, Goosegrass [4, 30]: 100
- Plant response rating, Kochia [5, 29]: 0
- Plant response rating, Kochia [5, 30]: 30
- Plant response rating, Oat, Wild [6, 29]: 0
- Plant response rating, Oat, Wild [6, 30]: 0
- Plant response rating, Pigweed, Palmer [7, 29]: 30
- Plant response rating, Pigweed, Palmer [7, 30]: 90
- Plant response rating, Ragweed [8, 29]: 0
- Plant response rating, Ragweed [8, 30]: 20
- Plant response rating, Ryegrass, Italian [9, 29]: 100
- Plant response rating, Ryegrass, Italian [9, 30]: 100
- Plant response rating, Soybean [10, 29]: 40
- Plant response rating, Soybean [10, 30]: 100
- Plant response rating, Wheat [11, 29]: 0
- Plant response rating, Wheat [11, 30]: 30
- Plant response rating, Blackgrass [12, 31]: 10
- Plant response rating, Blackgrass [12, 32]: 60
- Plant response rating, Corn [13, 31]: 30
- Plant response rating, Corn [13, 32]: 80
- Plant response rating, Foxtail, Giant [14, 31]: 90
- Plant response rating, Foxtail, Giant [14, 32]: 90
- Plant response rating, Goosegrass [15, 31]: 10
- Plant response rating, Goosegrass [15, 32]: 80
- Plant response rating, Kochia [16, 31]: 20
- Plant response rating, Kochia [16, 32]: 70
- Plant response rating, Oat, Wild [17, 31]: 50
- Plant response rating, Oat, Wild [17, 32]: 90
- Plant response rating, Pigweed, Palmer [18, 31]: 20
- Plant response rating, Pigweed, Palmer [18, 32]: 50
- Plant response rating, Ragweed [19, 31]: 20
- Plant response rating, Ragweed [19, 32]: 50
- Plant response rating, Ryegrass, Italian [20, 31]: 0
- Plant response rating, Ryegrass, Italian [20, 32]: 60
- Plant response rating, Soybean [21, 31]: 100
- Plant response rating, Soybean [21, 32]: 100
- Plant response rating, Wheat [22, 31]: 30
- Plant response rating, Wheat [22, 32]: 60
- Plant response rating, Galium [23, 31]: 90
- Plant response rating, Galium [23, 32]: 100
- Plant response rating, Horseweed [24, 31]: 0
- Plant response rating, Horseweed [24, 32]: 0
- Plant response rating, Barnyardgrass [25]: 15
- Plant response rating, Ducksalad [26]: 45
- Plant response rating, Rice [27]: 0
- Plant response rating, Sedge, Umbrella [28]: 35

Structure (SMILES): Cc1cccc2c1O[C@@H](C)CN2C(=O)c1cccc(-n2cncn2)c1F [Compound 53]
- Plant response rating, Blackgrass [1, 29]: 0
- Plant response rating, Blackgrass [1, 30]: 0
- Plant response rating, Corn [2, 29]: 0
- Plant response rating, Corn [2, 30]: 0
- Plant response rating, Foxtail, Giant [3, 29]: 0
- Plant response rating, Foxtail, Giant [3, 30]: 0
- Plant response rating, Goosegrass [4, 29]: 0
- Plant response rating, Goosegrass [4, 30]: 40
- Plant response rating, Kochia [5, 29]: 0
- Plant response rating, Kochia [5, 30]: 20
- Plant response rating, Oat, Wild [6, 29]: 0
- Plant response rating, Oat, Wild [6, 30]: 0
- Plant response rating, Pigweed, Palmer [7, 29]: 0
- Plant response rating, Pigweed, Palmer [7, 30]: 0
- Plant response rating, Ragweed [8, 29]: 0
- Plant response rating, Ragweed [8, 30]: 0
- Plant response rating, Ryegrass, Italian [9, 29]: 30
- Plant response rating, Ryegrass, Italian [9, 30]: 70
- Plant response rating, Soybean [10, 29]: 0
- Plant response rating, Soybean [10, 30]: 0
- Plant response rating, Wheat [11, 29]: 0
- Plant response rating, Wheat [11, 30]: 10
- Plant response rating, Blackgrass [12, 31]: 0
- Plant response rating, Blackgrass [12, 32]: 20
- Plant response rating, Corn [13, 31]: 0
- Plant response rating, Corn [13, 32]: 0
- Plant response rating, Foxtail, Giant [14, 31]: 0
- Plant response rating, Foxtail, Giant [14, 32]: 10
- Plant response rating, Goosegrass [15, 31]: 20
- Plant response rating, Goosegrass [15, 32]: 40
- Plant response rating, Kochia [16, 31]: 0
- Plant response rating, Kochia [16, 32]: 10
- Plant response rating, Oat, Wild [17, 31]: 0
- Plant response rating, Oat, Wild [17, 32]: 0
- Plant response rating, Pigweed, Palmer [18, 31]: 0
- Plant response rating, Pigweed, Palmer [18, 32]: 30
- Plant response rating, Ragweed [19, 31]: 0
- Plant response rating, Ragweed [19, 32]: 0
- Plant response rating, Ryegrass, Italian [20, 31]: 0
- Plant response rating, Ryegrass, Italian [20, 32]: 0
- Plant response rating, Soybean [21, 31]: 20
- Plant response rating, Soybean [21, 32]: 50
- Plant response rating, Wheat [22, 31]: 0
- Plant response rating, Wheat [22, 32]: 0
- Plant response rating, Galium [23, 31]: 0
- Plant response rating, Galium [23, 32]: 0
- Plant response rating, Horseweed [24, 31]: 0
- Plant response rating, Horseweed [24, 32]: 0
- Plant response rating, Barnyardgrass [25]: 0
- Plant response rating, Ducksalad [26]: 0
- Plant response rating, Rice [27]: 0
- Plant response rating, Sedge, Umbrella [28]: 0
